Source: patent US9783505B2, “Substituted diaminopyrimidyl compounds, compositions thereof, and methods of treatment therewith” (Signal Pharmaceuticals, LLC, priority 2013, dated 2017)

Target: T1, His-PKC-theta (Homo sapiens, UniProt Q04759)
T1 construct: His; purchased Invitrogen
Test: PKC-theta Assay (384-well time resolved fluorescence, IMAP TR-FRET)
Type: biochemical
Conditions: Table 2; read-out: Act. Level (IC50 in the PKC-theta Assay)
Description: PKC-theta Assay. A 384-well time resolved fluorescence assay was used to monitor PKC-theta activity. The PKC-theta assay was run in the following assay buffer: 50 mM HEPES pH 7.6, 10 mM MgCl2, 1 mM DTT, 0.01% Triton X-100, 0.01% BSA and 0.1 mM EDTA. To initiate the reaction, 200 nM of Fam-labeled S6-derived peptide (Molecular Devices) and 10 μM of ATP were mixed with 142 pM of His-PKC-theta (Invitrogen) for a total assay volume of 25 μL in each well. The assay was incubated at room temperature for 2 hours and terminated using a 60 μL/well mixture of Detection Binding Solution: 70% IMAP Progressive Binding Buffer A, 30% IMAP Progressive Binding Buffer B, 1:600 Progressive Binding Reagent, and 1:400 TR-FRET Tb Donor (Molecular Devices). The assay plates were then incubated overnight at room temperature and read on a Perkin-Elmer Envision Reader.

T1 sequence (Q04759 whole entry): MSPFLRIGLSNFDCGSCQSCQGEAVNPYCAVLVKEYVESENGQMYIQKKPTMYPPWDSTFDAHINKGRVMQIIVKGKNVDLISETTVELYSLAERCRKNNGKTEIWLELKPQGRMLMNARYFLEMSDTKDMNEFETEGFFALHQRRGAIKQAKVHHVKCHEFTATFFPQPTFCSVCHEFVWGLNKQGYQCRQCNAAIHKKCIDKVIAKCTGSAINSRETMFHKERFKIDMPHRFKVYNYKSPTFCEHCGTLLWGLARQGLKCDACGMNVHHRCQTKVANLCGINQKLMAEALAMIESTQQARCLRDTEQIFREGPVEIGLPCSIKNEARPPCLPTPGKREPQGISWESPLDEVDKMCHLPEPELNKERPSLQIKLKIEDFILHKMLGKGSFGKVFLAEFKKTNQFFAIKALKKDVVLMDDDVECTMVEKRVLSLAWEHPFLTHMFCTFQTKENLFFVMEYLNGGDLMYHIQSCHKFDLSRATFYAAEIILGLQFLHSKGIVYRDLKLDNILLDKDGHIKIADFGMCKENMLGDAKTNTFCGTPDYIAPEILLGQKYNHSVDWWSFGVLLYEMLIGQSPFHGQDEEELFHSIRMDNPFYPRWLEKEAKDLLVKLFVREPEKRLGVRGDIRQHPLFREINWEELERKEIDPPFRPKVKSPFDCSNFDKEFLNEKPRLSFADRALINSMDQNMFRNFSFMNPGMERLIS

Compound | IC50 [nM]
CC1(C)C[C@H](Nc2nc(NCCc3cccc(-c4ccccc4)c3)ncc2C#N)CC[C@@H]1O [Cmpd 58] | 800 to 2000
CC1(C)[C@@H](O)C[C@H]1Nc1nc(NCCc2ccc(-c3ccccc3)cc2)ncc1C#N [Cmpd 111] | 100 to 800
CC1(C)[C@@H](O)C[C@H]1Nc1nc(NCCc2cccc(C(F)(F)F)c2)ncc1C#N [Cmpd 45] | 100 to 800
CC1(C)C[C@H](Nc2nc(NCCc3ccccc3C#N)ncc2C#N)CC[C@@H]1O [Cmpd 156] | 100 to 800
CC1(C)C[C@H](Nc2nc(NCCc3cccc(Cl)c3C(F)(F)F)ncc2C#N)CC[C@@H]1O [Cmpd 182] | 100 to 800
CC1(C)[C@@H](O)C[C@H]1Nc1nc(NCCc2ccc(Cl)cc2Cl)ncc1C#N [Cmpd 106] | 100 to 800
N#Cc1cnc(NCc2ccccc2N2CCOCC2)nc1N[C@H]1CC[C@@H](O)CC1 [Cmpd 13] | 800 to 2000
CC1(C)C[C@H](Nc2nc(NCCc3ccc(C#N)c(Br)c3)ncc2C#N)CC[C@@H]1O [Cmpd 146] | < 100
COCCOc1ccc(CCNc2ncc(C#N)c(N[C@@H]3C[C@H](O)C3(C)C)n2)cc1 [Cmpd 109] | 100 to 800
CC1(C)C[C@H](Nc2nc(NCCc3ccc(OCC(F)F)cc3)ncc2C#N)CC[C@@H]1O [Cmpd 170] | < 100
N#Cc1cnc(NCc2c(F)cccc2Cl)nc1N[C@H]1CC[C@@H](O)CC1 [Cmpd 16] | 100 to 800
N#Cc1ccc(CCNc2ncc(C#N)c(N[C@H]3CC[C@@H](O)CC3)n2)cc1 [Cmpd 73] | 800 to 2000
N#Cc1cnc(NCCc2ccc(F)c(Cl)c2)nc1N[C@H]1CC[C@@H](C(N)=O)CC1 [Cmpd 90] | < 100
CC1(C)C[C@H](Nc2nc(NCCc3ccc(OC(F)(F)F)cc3)ncc2C#N)CC[C@@H]1O [Cmpd 53] | 100 to 800
CC1(C)C[C@H](Nc2nc(NCCc3cc(Cl)ccc3S(N)(=O)=O)ncc2C#N)CC[C@@H]1O [Cmpd 193] | 100 to 800
N#Cc1cnc(NCc2ccccc2C(F)(F)F)nc1N[C@H]1CC[C@@H](O)CC1 [Cmpd 8] | 100 to 800
C[C@H](CNc1ncc(C#N)c(N[C@@H]2C[C@H](O)C2(C)C)n1)c1ccccc1 [Cmpd 42] | 100 to 800
COc1ccccc1CCNc1ncc(C#N)c(N[C@@H]2C[C@H](O)C2(C)C)n1 [Cmpd 85] | 100 to 800
Cc1nnnn1-c1ccccc1CNc1ncc(C#N)c(N[C@H]2CC[C@@H](O)C(C)(C)C2)n1 [Cmpd 25] | 2000 to 10000
CC1(C)C[C@H](Nc2nc(NCCc3ccccc3)ncc2C#N)CC[C@@H]1O [Cmpd 150] | < 100
CC1(C)C[C@H](Nc2nc(NCCc3ccc(C(N)=O)cc3)ncc2C#N)CC[C@@H]1O [Cmpd 154] | 100 to 800
Cc1c(CO)cccc1Nc1nc(NCc2cnccc2C(F)(F)F)ncc1C#N [Cmpd 7] | 100 to 800
CC1(C)[C@@H](O)C[C@H]1Nc1nc(NCCc2ccc(-c3ccc(F)cc3)cc2)ncc1C#N [Cmpd 120] | 100 to 800

Compound | IC50 [nM]
CC1(C)C[C@H](Nc2nc(NCCc3ccc(S(N)(=O)=O)cc3)ncc2C#N)CC[C@@H]1O [Cmpd 65] | 100 to 800
CC1(C)C[C@H](Nc2nc(NCCc3cc(Cl)ccc3C(F)(F)F)ncc2C#N)CC[C@@H]1O [Cmpd 183] | 100 to 800
CC1(C)[C@H](CO)C[C@@H]1Nc1nc(NCCc2cccc(Cl)c2)ncc1C#N [Cmpd 75] | 800 to 2000
CC1(C)C[C@H](Nc2nc(NCCc3ccc(N4CCCCC4)cc3)ncc2C#N)CC[C@@H]1O [Cmpd 83] | 100 to 800
CC1(C)[C@@H](O)C[C@H]1Nc1nc(NCCc2ccccc2)ncc1C#N [Cmpd 149] | 100 to 800
CC1(C)C[C@H](Nc2nc(NCCc3ccc(C#N)c(C(F)(F)F)c3)ncc2C#N)CC[C@@H]1O [Cmpd 140] | 100 to 800
CN(C)S(=O)(=O)c1ccc(CCNc2ncc(C#N)c(N[C@@H]3CC[C@H](O)C(C)(C)C3)n2)cc1 [Cmpd 175] | 100 to 800
CC1(C)C[C@H](O)CC[C@H]1Nc1nc(NCCc2cccc(Cl)c2)ncc1C#N [Cmpd 188] | 100 to 800
N#Cc1cnc(NCc2ccccc2-n2cccn2)nc1N[C@H]1CC[C@@H](O)CC1 [Cmpd 21] | 2000 to 10000
N#Cc1cnc(NCc2ccccc2Cl)nc1N[C@H]1CC[C@@H](O)CC1 [Cmpd 9] | 100 to 800
CC(C)(O)CNc1nc(NCc2cnccc2C(F)(F)F)ncc1C#N [Cmpd 6] | 100 to 800
N#Cc1cnc(NCCc2cccc(Cl)c2)nc1N[C@H]1CC[C@@H](O)CC1 [Cmpd 68] | 100 to 800
CC1(C)C[C@H](Nc2nc(NCCc3ccccc3OC(F)(F)F)ncc2C#N)CC[C@@H]1O [Cmpd 55] | 100 to 800
CC1(C)[C@@H](O)C[C@H]1Nc1nc(NCCc2ccccc2C(F)(F)F)ncc1C#N [Cmpd 44] | 100 to 800
CCc1ccc(CCNc2ncc(C#N)c(N[C@@H]3CC[C@H](O)C(C)(C)C3)n2)cc1 [Cmpd 34] | 100 to 800
CC1(C)C[C@H](Nc2nc(NCCc3ccccc3C(F)(F)F)ncc2C#N)CC[C@@H]1O [Cmpd 97] | 100 to 800
N#Cc1cnc(NCc2ccccc2)nc1N[C@H]1CC[C@@H](O)CC1 [Cmpd 28] | 2000 to 10000
CC1(C)[C@H](Nc2nc(NCCc3cccc(Cl)c3)ncc2C#N)C[C@H]1C(N)=O [Cmpd 163] | 2000 to 10000
CNC(=O)c1cccc(CCNc2ncc(C#N)c(N[C@@H]3C[C@H](O)C3(C)C)n2)c1 [Cmpd 135] | 800 to 2000
CC1(C)[C@@H](O)C[C@H]1Nc1nc(NCCc2ccc(C#N)c(Cl)c2)ncc1C#N [Cmpd 142] | 100 to 800
CC1(C)C[C@H](Nc2nc(NCCc3ccc(S(=O)(=O)N4CCCCC4)cc3)ncc2C#N)CC[C@@H]1O [Cmpd 178] | 100 to 800
CCOc1cccc(F)c1CNc1ncc(C#N)c(N[C@H]2CC[C@@H](O)CC2)n1 [Cmpd 23] | 2000 to 10000

Same assay, conditions: read-out: Act. Level (IC50 in the PKC-theta Assay)

Compound | IC50 [nM]
CC1(C)[C@H](O)C[C@H]1Nc1nc(NCc2cncnc2-c2ccc(F)cc2)ncc1C#N [Cmpd 93] | 100 to 800
CC1(C)C(Nc2nc(NCc3cncnc3OCCC(F)(F)F)ncc2C#N)C[C@H]1O (stereo partly drawn) [Cmpd 77] | < 100
CC1(C)[C@@H](O)C[C@H]1Nc1nc(NCc2cncnc2OCCC(F)(F)F)ncc1C(F)(F)F [Cmpd 2] | < 100
CC(F)(F)COc1ncncc1CNc1ncc(C#N)c(NC23CCC(O)(CC2)CC3)n1 [Cmpd 156] | 800 to 2000
CC1(C)[C@@H](O)C[C@H]1Nc1nc(NCc2c[n+]([O-])ccc2C(F)(F)F)ncc1C(F)(F)F [Cmpd 41] | < 100
N#Cc1cnc(NCc2cnccc2C(F)(F)F)nc1N[C@H]1C[C@H](O)C1 [Cmpd 108] | 100 to 800
Cc1cccc2c(CCNc3ncc(C#N)c(N[C@@H]4CC[C@H](O)C(C)(C)C4)n3)c[nH]c12 [Cmpd 172] | 100 to 800
CC1(C)[C@@H](O)C[C@H]1Nc1nc(NCCc2cccc3cccnc23)ncc1C#N [Cmpd 190] | 2000 to 10000
Cc1[nH]c2c(F)cc(F)cc2c1CCNc1ncc(C#N)c(N[C@H]2CC[C@@H](O)CC2)n1 [Cmpd 149] | 2000 to 10000
CCc1ncncc1CNc1ncc(C#N)c(NC2CC(C)(O)C2(C)C)n1 (stereo not drawn) [Cmpd 135] | 100 to 800
CC1(C)[C@@H](O)C[C@H]1Nc1nc(NCCc2cccs2)ncc1C#N [Cmpd 189] | 100 to 800
CC1(C)C[C@H](Nc2nc(NCCC3(O)C(=O)Nc4ccccc43)ncc2C#N)CC[C@@H]1O (stereo partly drawn) [Cmpd 184] | 100 to 800
CC1(C)C[C@H](Nc2nc(NCCn3c(=O)[nH]c4ccccc43)ncc2C#N)CC[C@@H]1O [Cmpd 293] | 2000 to 10000
CNC(=O)[C@H]1CC[C@@H](Nc2nc(NCc3cncnc3Oc3cccc(C)c3)ncc2C#N)CC1 [Cmpd 22] | < 100
CC1(C)C[C@H](Nc2nc(NCCc3c[nH]c4ccc(Cl)cc34)ncc2C#N)CC[C@@H]1O [Cmpd 169] | 100 to 800
CC1(C)C[C@H](Nc2nc(NCCc3c[nH]c4ccc(F)cc34)ncc2C#N)CC[C@@H]1O [Cmpd 181] | 100 to 800
CCc1ccc2c(c1)C(CCNc1ncc(C#N)c(N[C@@H]3C[C@H](O)C3(C)C)n1)C(=O)N2 (stereo partly drawn) [Cmpd 261] | < 100
CC1(C)C[C@H](Nc2nc(NCCc3cccc4cccnc34)ncc2C#N)CC[C@@H]1O [Cmpd 147] | 100 to 800
Cc1cccc(Oc2ncncc2CNc2ncc(C#N)c(N[C@H]3CC[C@@](C)(O)CC3)n2)c1 [Cmpd 38] | < 100
CCc1ccc2c(c1)C(CCNc1ncc(C#N)c(N[C@H]3CC[C@@H](C(N)=O)CC3)n1)C(=O)N2 (stereo partly drawn) [Cmpd 180] | < 100
CC1(C)[C@@H](O)C[C@H]1Nc1nc(NCc2cncnc2-c2ccc(F)cc2)ncc1C#N [Cmpd 79] | < 100
Cc1ccc(Oc2ncncc2CNc2ncc(C(F)(F)F)c(N[C@H]3CC[C@@](C)(O)CC3)n2)cc1 [Cmpd 31] | < 100
C[C@]1(O)CC[C@@H](Nc2nc(NCc3cnccc3C(F)(F)F)ncc2C#N)CC1 [Cmpd 71] | < 100
Cc1cc(C(F)(F)F)c(CNc2ncc(C(F)(F)F)c(N[C@@H]3CC[C@H](O)C(C)(C)C3)n2)c[n+]1[O-] [Cmpd 55] | < 100
CC1(C)[C@H](O)C[C@@H]1Nc1nc(NCc2cncnc2OCCC(F)(F)F)ncc1C#N [Cmpd 89] | < 100
Cc1[nH]c2ccc(C#N)cc2c1CCNc1ncc(C#N)c(N[C@H]2CC[C@@H](O)CC2)n1 [Cmpd 148] | 2000 to 10000
CC1(C)[C@H](O)C[C@@H]1Nc1nc(NCc2c[n+]([O-])ccc2C(F)(F)F)ncc1C(F)(F)F [Cmpd 136] | 100 to 800
CNC(=O)[C@H]1CC[C@@H](Nc2nc(NCc3cnccc3C(F)(F)F)ncc2C#N)CC1 [Cmpd 68] | < 100
C[C@@H]1CC[C@@H](Nc2nc(NCc3cncnc3OCC(C)(F)F)ncc2C#N)C[C@H]1O [Cmpd 157] | 100 to 800
CC1(C)C[C@H](Nc2nc(NCc3cncnc3OCCF)ncc2C#N)CC[C@@H]1O [Cmpd 21] | < 100
